{"source": "the supplement of paper PMC10307832", "experiment_in_all_cases": "relative viability (nuclei count vs DMSO), 5 days (fraction); higher = more cells survive", "key": {"[1]": {"system": "NCI-H460", "outline": "(§1)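 Values are medians from duplicate plates. Each reflects relative viability, defined as the nuclei count of treated wells over that of vehicle wells. Lung cancer cell lines in 1536-well plates were pin-tool dosed one day after seeding with one drug alone or with a fixed anchor-drug dose plus five library-drug doses (not always all listed) in √10 steps, then fixed, stained and imaged at 4× after 5 days.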"}, "[2]": {"system": "NCI-H1975", "outline": "as §1"}, "[3]": {"system": "NCI-H2126", "outline": "as §1"}, "[4]": {"system": "NCI-H596", "outline": "as §1"}, "[5]": {"system": "NCI-H727", "outline": "as §1"}, "[6]": {"system": "NCI-H2085", "outline": "as §1"}, "[7]": {"system": "LCLC-103H", "outline": "as §1"}, "[8]": {"system": "LOU-NH91", "outline": "as §1"}, "[9]": {"system": "RERF-LC-KJ", "outline": "as §1"}, "[10]": {"system": "HARA", "outline": "as §1"}, "[11]": {"system": "NCI-H838", "outline": "as §1"}, "[12]": {"system": "NCI-H1734", "outline": "as §1"}, "[13]": {"system": "CAL-12T", "outline": "as §1"}, "[14]": {"system": "A-427", "outline": "as §1"}, "[15]": {"system": "NCI-H647", "outline": "as §1"}, "[16]": {"system": "NCI-H1944", "outline": "as §1"}, "[17]": {"system": "BEN", "outline": "as §1"}, "[18]": {"system": "ABC-1", "outline": "as §1"}, "[19]": {"system": "NCI-H1666", "outline": "as §1"}, "[20]": {"system": "NCI-H520", "outline": "as §1"}, "[21]": {"system": "SW 900", "outline": "as §1"}, "[22]": {"system": "NCI-H661", "outline": "as §1"}, "[23]": {"system": "NCI-H1651", "outline": "as §1"}}}
{"compound": "CN1CCN(CCOc2cc(OC3CCOCC3)c3c(Nc4c(Cl)ccc5c4OCO5)ncnc3c2)CC1", "note": "[Saracatinib] + COc1cccc2cc(-c3nc([C@H]4CC[C@H](C(=O)O)CC4)n4ncnc(N)c34)[nH]c12 [OSI-027] (partner 0.5 µM)", "values": [{"measurement": "relative viability", "setting": "[1]; first compound 0.02 µM", "result": 0.656}, {"measurement": "relative viability", "setting": "[1]; first compound 0.2 µM", "result": 0.394}, {"measurement": "relative viability", "setting": "[1]; first compound 0.6325 µM", "result": 0.623}, {"measurement": "relative viability", "setting": "[1]; first compound 2 µM", "result": 0.376}, {"measurement": "relative viability", "setting": "[2]; first compound 0.02 µM", "result": 0.678}, {"measurement": "relative viability", "setting": "[2]; first compound 0.2 µM", "result": 0.585}, {"measurement": "relative viability", "setting": "[2]; first compound 0.6325 µM", "result": 0.686}, {"measurement": "relative viability", "setting": "[2]; first compound 2 µM", "result": 0.403}, {"measurement": "relative viability", "setting": "[3]; first compound 0.02 µM", "result": 0.8}, {"measurement": "relative viability", "setting": "[3]; first compound 0.2 µM", "result": 0.672}, {"measurement": "relative viability", "setting": "[3]; first compound 0.6325 µM", "result": 0.662}, {"measurement": "relative viability", "setting": "[3]; first compound 2 µM", "result": 0.589}, {"measurement": "relative viability", "setting": "[4]; first compound 0.02 µM", "result": 0.721}, {"measurement": "relative viability", "setting": "[4]; first compound 0.2 µM", "result": 0.429}, {"measurement": "relative viability", "setting": "[4]; first compound 0.6325 µM", "result": 0.623}, {"measurement": "relative viability", "setting": "[4]; first compound 2 µM", "result": 0.403}, {"measurement": "relative viability", "setting": "[5]; first compound 0.02 µM", "result": 0.496}, {"measurement": "relative viability", "setting": "[5]; first compound 0.2 µM", "result": 0.463}, {"measurement": "relative viability", "setting": "[5]; first compound 0.6325 µM", "result": 0.529}, {"measurement": "relative viability", "setting": "[5]; first compound 2 µM", "result": 0.485}, {"measurement": "relative viability", "setting": "[6]; first compound 0.02 µM", "result": 0.839}, {"measurement": "relative viability", "setting": "[6]; first compound 0.2 µM", "result": 0.723}, {"measurement": "relative viability", "setting": "[6]; first compound 0.6325 µM", "result": 0.772}, {"measurement": "relative viability", "setting": "[6]; first compound 2 µM", "result": 0.78}, {"measurement": "relative viability", "setting": "[7]; first compound 0.02 µM", "result": 0.481}, {"measurement": "relative viability", "setting": "[7]; first compound 0.2 µM", "result": 0.427}, {"measurement": "relative viability", "setting": "[7]; first compound 0.6325 µM", "result": 0.505}, {"measurement": "relative viability", "setting": "[7]; first compound 2 µM", "result": 0.459}, {"measurement": "relative viability", "setting": "[8]; first compound 0.02 µM", "result": 0.756}, {"measurement": "relative viability", "setting": "[8]; first compound 0.2 µM", "result": 0.556}, {"measurement": "relative viability", "setting": "[8]; first compound 0.6325 µM", "result": 0.544}, {"measurement": "relative viability", "setting": "[8]; first compound 2 µM", "result": 0.413}, {"measurement": "relative viability", "setting": "[9]; first compound 0.02 µM", "result": 0.575}, {"measurement": "relative viability", "setting": "[9]; first compound 0.2 µM", "result": 0.569}, {"measurement": "relative viability", "setting": "[9]; first compound 0.6325 µM", "result": 0.546}, {"measurement": "relative viability", "setting": "[9]; first compound 2 µM", "result": 0.52}, {"measurement": "relative viability", "setting": "[10]; first compound 0.02 µM", "result": 0.544}, {"measurement": "relative viability", "setting": "[10]; first compound 0.2 µM", "result": 0.263}, {"measurement": "relative viability", "setting": "[10]; first compound 0.6325 µM", "result": 0.483}, {"measurement": "relative viability", "setting": "[10]; first compound 2 µM", "result": 0.205}, {"measurement": "relative viability", "setting": "[11]; first compound 0.02 µM", "result": 0.348}, {"measurement": "relative viability", "setting": "[11]; first compound 0.2 µM", "result": 0.302}, {"measurement": "relative viability", "setting": "[11]; first compound 0.6325 µM", "result": 0.401}, {"measurement": "relative viability", "setting": "[11]; first compound 2 µM", "result": 0.235}, {"measurement": "relative viability", "setting": "[12]; first compound 0.02 µM", "result": 0.635}, {"measurement": "relative viability", "setting": "[12]; first compound 0.6325 µM", "result": 0.571}, {"measurement": "relative viability", "setting": "[12]; first compound 2 µM", "result": 0.507}, {"measurement": "relative viability", "setting": "[13]; first compound 0.02 µM", "result": 0.734}, {"measurement": "relative viability", "setting": "[13]; first compound 0.2 µM", "result": 0.677}, {"measurement": "relative viability", "setting": "[13]; first compound 0.6325 µM", "result": 1.08}, {"measurement": "relative viability", "setting": "[13]; first compound 2 µM", "result": 0.57}, {"measurement": "relative viability", "setting": "[14]; first compound 0.02 µM", "result": 0.506}, {"measurement": "relative viability", "setting": "[14]; first compound 0.2 µM", "result": 0.409}, {"measurement": "relative viability", "setting": "[14]; first compound 0.6325 µM", "result": 0.445}, {"measurement": "relative viability", "setting": "[14]; first compound 2 µM", "result": 0.493}, {"measurement": "relative viability", "setting": "[15]; first compound 0.02 µM", "result": 0.584}, {"measurement": "relative viability", "setting": "[15]; first compound 0.2 µM", "result": 0.65}, {"measurement": "relative viability", "setting": "[15]; first compound 0.6325 µM", "result": 0.637}, {"measurement": "relative viability", "setting": "[15]; first compound 2 µM", "result": 0.381}, {"measurement": "relative viability", "setting": "[16]; first compound 0.02 µM", "result": 0.43}, {"measurement": "relative viability", "setting": "[16]; first compound 0.6325 µM", "result": 0.324}, {"measurement": "relative viability", "setting": "[16]; first compound 2 µM", "result": 0.274}, {"measurement": "relative viability", "setting": "[17]; first compound 0.02 µM", "result": 0.284}, {"measurement": "relative viability", "setting": "[17]; first compound 0.6325 µM", "result": 0.309}, {"measurement": "relative viability", "setting": "[17]; first compound 2 µM", "result": 0.261}, {"measurement": "relative viability", "setting": "[18]; first compound 0.02 µM", "result": 0.428}, {"measurement": "relative viability", "setting": "[18]; first compound 0.2 µM", "result": 0.65}, {"measurement": "relative viability", "setting": "[18]; first compound 0.6325 µM", "result": 0.547}, {"measurement": "relative viability", "setting": "[18]; first compound 2 µM", "result": 0.543}, {"measurement": "relative viability", "setting": "[19]; first compound 0.02 µM", "result": 0.914}, {"measurement": "relative viability", "setting": "[19]; first compound 0.2 µM", "result": 0.863}, {"measurement": "relative viability", "setting": "[19]; first compound 0.6325 µM", "result": 1.2}, {"measurement": "relative viability", "setting": "[19]; first compound 2 µM", "result": 1.07}, {"measurement": "relative viability", "setting": "[20]; first compound 0.02 µM", "result": 0.191}, {"measurement": "relative viability", "setting": "[20]; first compound 0.6325 µM", "result": 0.262}, {"measurement": "relative viability", "setting": "[20]; first compound 2 µM", "result": 0.176}, {"measurement": "relative viability", "setting": "[21]; first compound 0.02 µM", "result": 0.616}, {"measurement": "relative viability", "setting": "[21]; first compound 0.2 µM", "result": 0.559}, {"measurement": "relative viability", "setting": "[21]; first compound 0.6325 µM", "result": 0.575}, {"measurement": "relative viability", "setting": "[21]; first compound 2 µM", "result": 0.443}, {"measurement": "relative viability", "setting": "[22]; first compound 0.02 µM", "result": 0.707}, {"measurement": "relative viability", "setting": "[22]; first compound 0.2 µM", "result": 0.655}, {"measurement": "relative viability", "setting": "[22]; first compound 0.6325 µM", "result": 0.502}, {"measurement": "relative viability", "setting": "[22]; first compound 2 µM", "result": 0.467}, {"measurement": "relative viability", "setting": "[23]; first compound 0.02 µM", "result": 0.694}, {"measurement": "relative viability", "setting": "[23]; first compound 0.2 µM", "result": 0.657}, {"measurement": "relative viability", "setting": "[23]; first compound 0.6325 µM", "result": 0.81}, {"measurement": "relative viability", "setting": "[23]; first compound 2 µM", "result": 0.485}]}
